Earlier results, collected in US9987231B2, “Compositions and methods for delivery of omeprazole plus acetylsalicylic acid” (POZEN INC., priority 2011, dated 2018).

Plasma protein binding (Plasma protein): about 95%
Systemic bioavailability (after repeated dose): about 60%
Orally given dose excreted as metabolites in the urine (in vivo, po): About 80%
Time in which absorption is usually completed (small intestine): 3 to 6 h
SMILES: COc1ccc2[nH]c([S+]([O-])Cc3ncc(C)c(OC)c3C)nc2c1 (racemic) [Omeprazole]
